According to the NIST ThermoML archive (doi:10.1007/s10765-009-0651-x):
± gives the expanded uncertainty stated by the source.

Tests used:
[1] = wn = mass fraction of the nth substance listed; details: 101 kPa, Liquid

Cn1cc[n+](C)c1.[Cl-] [1,3-dimethylimidazolium chloride]
Details	Normal melting temperature [°C]
Crystal, visual observation	126.00 ± 4

Cn1cc[n+](C)c1.[Cl-] [1,3-dimethylimidazolium chloride] + O
mass density [kg/m3], [1]
Details	w2 = 0.2004	w2 = 0.3015	w2 = 0.4019	w2 = 0.5001	w2 = 0.5992	w2 = 0.7003	w2 = 0.8003	w2 = 0.898
293.15 K	1157.78 ± 1.6	1135.29 ± 1.4	1111.77 ± 1.2	1089.04 ± 1.1	1067.56 ± 0.94	1047.52 ± 0.81	1030.53 ± 0.7	1014.07 ± 0.59
298.15 K	1154.79 ± 1.5	1132.4 ± 1.4	1109.03 ± 1.2	1087.14 ± 1.1	1065.77 ± 0.93	1045.81 ± 0.8	1027.98 ± 0.68	1012.2 ± 0.58
303.15 K	1152.15 ± 1.5	1129.93 ± 1.4	1106.69 ± 1.2	1084.55 ± 1.1	1063.34 ± 0.92	1043.7 ± 0.78	1026.15 ± 0.67	1010.57 ± 0.57
308.15 K	1149.31 ± 1.5	1127.15 ± 1.3	1104.22 ± 1.2	1082.68 ± 1.1	1061.63 ± 0.91	1041.8 ± 0.77	1024.53 ± 0.66	1008.86 ± 0.56
313.15 K	1146.46 ± 1.5	1124.33 ± 1.3	1101.07 ± 1.2	1080.38 ± 1	1059.44 ± 0.89	1039.52 ± 0.76	1022.66 ± 0.65	1007.2 ± 0.55
318.15 K	1143.59 ± 1.5	1121.85 ± 1.3	1098.34 ± 1.1	1078.58 ± 1	1057.08 ± 0.88	1037.12 ± 0.74	1021.05 ± 0.64	1005.65 ± 0.54

CC#N [acetonitrile]
Details	mass density [kg/m3]
308.1 K, 101.33 kPa, Liquid, Vibrating tube method	765.98 ± 4.2
